Common to all, as to experiment: NCI-60 cell line screen, 48 h
The test system of assay [1] is 786-0.
Assay [2] deals with COLO 205.
The test system of assay [3] is EKVX.
Assay [4] has as its system HCT-116.
Assay [5] relates to HOP-92.
In assay [6] the test system is IGROV-1.
Assay [7] relates to M14.
For assay [8], the system named is MDA-MB-231.
Assay [9] relates to NCI-H226.
For assay [10], the system named is OVCAR-4.
The subject of assay [11] is OVCAR-8.
For assay [12], the system named is RPMI-8226.
The subject of assay [13] is SF-268.
The test system of assay [14] is SF-295.
Assay [15] relates to SK-MEL-28.
Assay [16] relates to SK-MEL-2.
For assay [17], the system named is UO-31.
Assay [18] relates to HL-60.
Assay [19] relates to OVCAR-3.
Assay [20] deals with SN12C.

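How tested: cells in 96-well plates exposed to compound for 48 hours at five concentrations. GI50 = concentration required for 50% inhibition of growth.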 Activity calls are given as the source filed them. No stated cut-off is given here; in the data, active = GI50 up to about 1.1 µM and inactive = higher.

`COc1ccc2oc(C(=O)N3CC(CCl)c4ccc([N+](=O)[O-])cc43)cc2c1` (centres undefined): the GI50 in assay [1] is 16.2 µM (inactive); in assay [2], 74.6 µM (inactive); in assay [3] it was 15.8 µM (inactive); in [4], 89.1 µM (inactive); in assay [5], 26.1 µM (inactive); in assay [6], 0.103 µM (active). Also, the GI50 in assay [7] is 89.9 µM (inactive); in [8] it was 14.9 µM (inactive); in assay [9], 0.664 µM (active); in assay [10], 15.2 µM (inactive); in assay [11], 17.2 µM (inactive); in [12], > 100 µM (inactive). Further, the GI50 in assay [13] is 13.3 µM (inactive); in assay [14], 13 µM (inactive); in assay [15], > 100 µM (inactive); in [16] it was 26.4 µM (inactive); in assay [17] it was 4.45 µM (inactive).
In the case of `Cc1ccc(-c2cc(-c3ccccc3)nc(N)n2)c(O)c1`, the GI50 was > 58.1 µM (inactive) in assay [1]; > 100 µM (inactive) in [2]; 5.48 µM (inactive) in assay [4]; 2.22 µM (inactive) in assay [18]; > 64.1 µM (inactive) in assay [5]; > 100 µM (inactive) in assay [7]. Besides, the GI50 in [8] was > 100 µM (inactive); in [19], > 59.2 µM (inactive); in assay [10], > 100 µM (inactive); in assay [11] it was 62.4 µM (inactive); in [12] it was 3.06 µM (inactive); in assay [13], > 100 µM (inactive). Besides, the GI50 is 39.4 µM (inactive) in assay [14]; > 100 µM (inactive) in assay [15]; > 28.9 µM (inactive) in assay [16]; > 100 µM (inactive) in [20]; > 100 µM (inactive) in assay [17].
With `O=C(/C=C/c1ccc(O)c(O)c1)OCC(OC(=O)/C=C/c1ccc(O)c(O)c1)C(=O)O` (centres undefined), the GI50 was > 100 µM (inactive) in assay [1]; > 100 µM (inactive) in assay [2]; > 100 µM (inactive) in assay [3]; 81.7 µM (inactive) in assay [4]; > 100 µM (inactive) in assay [5]; 80.9 µM (inactive) in assay [6]. The GI50 in assay [7] is > 100 µM (inactive); in assay [8], > 100 µM (inactive); in assay [9], > 100 µM (inactive); in assay [19], 55.2 µM (inactive); in [10], 90.2 µM (inactive); in [11] it was > 100 µM (inactive). In addition, the GI50 in assay [12], in assay [13], in [14], in [15], in assay [16] and in assay [20] was > 100 µM (inactive) in each case. Also, the GI50 in assay [17] is 85.7 µM (inactive).
`O=C(O)[C@H](CCC[C@H]1C(=O)O[C@H](c2ccccc2)[C@H](c2ccccc2)N1C(=O)OCc1ccccc1)N[C@@H](c1ccccc1)[C@H](O)c1ccccc1`: the GI50 in assay [1] is 32.5 µM (inactive); in assay [2], 30.8 µM (inactive); in assay [3], 38.6 µM (inactive); in assay [4], 20.8 µM (inactive); in assay [18] it was 17.4 µM (inactive); in assay [5], 22.3 µM (inactive). For the same compound, the GI50 is 42.8 µM (inactive) in assay [6]; > 100 µM (inactive) in [7]; 17.7 µM (inactive) in [8]; 23.7 µM (inactive) in assay [19]; 32.2 µM (inactive) in assay [10]; 20.5 µM (inactive) in [11]. Besides, the GI50 in [12] is 22.4 µM (inactive); in [13] it was 33.7 µM (inactive); in assay [14], 28.2 µM (inactive); in assay [15], 19.8 µM (inactive); in assay [16] it was 20 µM (inactive); in assay [20] it was 20.7 µM (inactive). Also, the GI50 in assay [17] is > 100 µM (inactive).
Take `C=C(C)C1CC/C(C)=C/CC[C@]2(C)O[C@H]2CC/C(COC(C)=O)=C\[C@@H]1O` (some centres undefined): the GI50 in assay [1] was > 50 µM (inactive); in assay [2], 17.9 µM (inactive); in [3], > 50 µM (inactive); in assay [4], > 50 µM (inactive); in [18] it was 27.4 µM (inactive); in assay [5], > 50 µM (inactive). The GI50 in assay [6], in [8], in assay [9], in assay [19], in assay [10] and in [11] was > 50 µM (inactive) in each case. Further, the GI50 in assay [12] is > 50 µM (inactive); in assay [13] it was > 50 µM (inactive); in [14] it was 30.7 µM (inactive); in assay [15] it was > 50 µM (inactive); in assay [16], > 50 µM (inactive); in assay [20], > 50 µM (inactive). Also, in assay [17], the GI50 is > 50 µM (inactive).
As to `CCCc1cc(=O)oc2c3c(c4c(c12)OC(C)(C)CC4)O[C@H](C)[C@@H](C)[C@H]3O`, the GI50 is 15.7 µM (inactive) in [1]; 15.7 µM (inactive) in [2]; 12.6 µM (inactive) in assay [3]; 15.5 µM (inactive) in [4]; 18.3 µM (inactive) in assay [5]; 15.6 µM (inactive) in assay [6]. Besides, the GI50 in assay [7] was 16.1 µM (inactive); in assay [8], 14.1 µM (inactive); in assay [9] it was 15.6 µM (inactive); in assay [19] it was 18.5 µM (inactive); in [10] it was 14.2 µM (inactive); in assay [11], 15.5 µM (inactive). Moreover, the GI50 in assay [12] is 4.82 µM (inactive); in assay [13], 17.4 µM (inactive); in assay [14] it was 16.2 µM (inactive); in assay [16] it was 24.7 µM (inactive); in assay [20], 16.4 µM (inactive); in assay [17], 13.8 µM (inactive).
Turning to `Cc1ccc2c(c1)[nH]c(=S)n2/C=C1\C(=O)Oc2ccccc2C1=O`, the GI50 in assay [1] was 42.8 µM (inactive); in [2] it was 99.3 µM (inactive); in assay [4], 44.9 µM (inactive); in assay [18], 55 µM (inactive); in assay [5], 39 µM (inactive); in assay [6], 39 µM (inactive). Further, the GI50 in assay [7] is 39.8 µM (inactive); in assay [8], 50.5 µM (inactive); in assay [9], > 100 µM (inactive); in [19], 24.4 µM (inactive); in assay [10], 64.1 µM (inactive); in [11] it was 65.8 µM (inactive). The GI50 in [12] is 65.2 µM (inactive); in assay [13], 55.7 µM (inactive); in assay [14] it was > 100 µM (inactive); in assay [15], 47.3 µM (inactive); in assay [16] it was > 100 µM (inactive); in assay [20], 59.4 µM (inactive). Also, in [17], the GI50 is 30.2 µM (inactive).
Take `COC(=O)C(CNC(=O)/C=C/c1ccc(OC)c(OC)c1)NC(=O)/C=C/c1ccc(OC)c(OC)c1` (centres undefined): the GI50 in [1], in [2], in [3], in assay [4], in [5] and in [6] was > 100 µM (inactive) each time. Also, the GI50 in [7] was > 100 µM (inactive); in assay [8], > 100 µM (inactive); in [9] it was > 100 µM (inactive); in assay [19], 66.5 µM (inactive); in [10], > 100 µM (inactive); in assay [11], > 100 µM (inactive). Besides, the GI50 in assay [12] was > 100 µM (inactive); in assay [13], > 100 µM (inactive); in [14], > 100 µM (inactive); in assay [15], 67.3 µM (inactive); in assay [16], > 100 µM (inactive); in assay [20], > 100 µM (inactive). In addition, the GI50 in [17] is > 100 µM (inactive).
Consider `O=C(/C=C/c1ccccc1)/C=N/N1C(=S)N(c2ccccc2)C(=N\c2ccccc2)/C1=N/c1ccccc1`, for which the GI50 in assay [1] was > 100 µM (inactive); in assay [2] it was > 100 µM (inactive); in assay [3] it was > 100 µM (inactive); in assay [4], 43.1 µM (inactive); in [5], > 100 µM (inactive); in [6] it was > 100 µM (inactive). The GI50 in assay [7], in assay [8], in assay [9], in assay [19], in assay [11] and in assay [12] was > 100 µM (inactive) in each case. In addition, the GI50 in assay [13], in assay [14], in [15], in assay [16], in assay [20] and in assay [17] was > 100 µM (inactive) each time.
For the compound `Cc1nc(C)c(N2CCN(C(=O)O)CC2)c(O)n1`, the GI50 in assay [1], in assay [2], in [3], in assay [4], in [18] and in assay [5] was > 100 µM (inactive) in each case. Further, the GI50 in [6], in assay [7], in [8], in assay [9], in assay [19] and in assay [10] was > 100 µM (inactive) throughout. Further, the GI50 in assay [11], in assay [12], in assay [13], in assay [14], in assay [15] and in assay [20] was > 100 µM (inactive) throughout. Further, the GI50 in assay [17] is > 100 µM (inactive).
